Data reported in patent US20060252740A1 (priority 2005, published 2006).

Legend:
[1] = system: patients with advanced solid tumors; details: cited from earlier work
breast cancer cells = details: cited from earlier work
[2] = Stability of diluted drug product; format: physicochemical; details: drug product at a dilution of 1:7, room temperature
leukemia cells = details: cited from earlier work

Question: With `C=CCNC1=C2C[C@@H](C)C[C@H](OC)[C@H](O)[C@@H](C)/C=C(\C)[C@H](OC(N)=O)[C@@H](OC)/C=C\C=C(/C)C(=O)NC(=CC1=O)C2=O` [17-AAG, 17-Allylamino-17-demethoxygeldanamycin] as the compound, how does the toxicities observed ([1]; dose of 395 mg/m^2) read?
Answer: nausea and vomiting secondary to pancreatitis and grade 3 fatigue

Question: What about the “17-AAG metabolized to 17-AG (metabolic clearance)” value ([1]; population PK analysis) of the same compound?
Answer: 46.4%

Question: And the “Vd (volume of distribution), central compartment” value ([1]; population PK analysis)?
Answer: 24.2 L

Question: What about the “Vd (volume of distribution), peripheral compartment” value ([1]; population PK analysis) of the same compound?
Answer: 89.6 L

Question: And the objective tumor responses ([1]; to date)?
Answer: No objective tumor responses

Question: What about the “effect of exposure on client proteins” value (breast cancer cells) of the same compound?
Answer: depletion of steroid receptors

Question: What about the stability after dilution [2] of the same compound?
Answer: up to 10 hours

Question: What about the “effect of exposure on client proteins” value (leukemia cells) of the same compound?
Answer: down-regulation of intracellular Bcr-Abl and c-Raf proteins and reduction of Akt kinase activity
